# In paper PMC5218480 (PLoS ONE, 2017):
# System: MV-4-11 cells
# Assay: Gene expression microarray analysis (Affymetrix PrimeView) and GSEA
# Assay type: cell-based, human
# Design: RFU PODN (11730768_x_at) / Fold change /veh PODN (11730768_x_at) / RFU LINC00158 (11744669_a_at) / Fold change /veh LINC00158 (11744669_a_at) / RFU DUSP10 (11751237_a_at) / Fold change /veh DUSP10 (11751237_a_at) / RFU ID3 (11757404_x_at) / Fold change /veh ID3 (11757404_x_at) / RFU PLEKHG5 (11737974_s_at) / Fold change /veh PLEKHG5 (11737974_s_at) / RFU LRRC4B (11730491_at) / Fold change /veh LRRC4B (11730491_at) / RFU GIMAP4 (11747438_a_at) / Fold change /veh GIMAP4 (11747438_a_at) / RFU KRT8 (11758183_x_at) / Fold change /veh KRT8 (11758183_x_at) / RFU CNN1 (11734310_a_at) / Fold change /veh CNN1 (11734310_a_at) / RFU VPS37D (11726825_at) / Fold change /veh VPS37D (11726825_at) / RFU C10orf10 (11716522_x_at) / Fold change /veh C10orf10 (11716522_x_at) / RFU KIR2DL2 /// KIR2DL4 /// KIR2DL5A /// KIR2DL5B /// KIR2DS1 /// KIR2DS2 /// KIR2DS3 /// KIR2DS4 /// KIR3DL3 /// KIR3DL3 /// KIR3DS1 (11738374_at) / Fold change /veh KIR2DL2 /// KIR2DL4 /// KIR2DL5A /// KIR2DL5B /// KIR2DS1 /// KIR2DS2 /// KIR2DS3 /// KIR2DS4 /// KIR3DL3 /// KIR3DL3 /// KIR3DS1 (11738374_at) / RFU C1QL1 (11718748_at) / Fold change /veh C1QL1 (11718748_at) / RFU TMPRSS4 (11747572_a_at) / Fold change /veh TMPRSS4 (11747572_a_at) / RFU HAMP (11756126_x_at) / Fold change /veh HAMP (11756126_x_at) / RFU RNFT2 (11725882_a_at) / Fold change /veh RNFT2 (11725882_a_at) / RFU NR4A2 (11747474_a_at) / Fold change /veh NR4A2 (11747474_a_at) / RFU ABCC12 (11746883_a_at) / Fold change /veh ABCC12 (11746883_a_at) / RFU TMEM136 (11760407_x_at) / Fold change /veh TMEM136 (11760407_x_at) / RFU CLDN22 /// WWC2 (11732394_at) / Fold change /veh CLDN22 /// WWC2 (11732394_at) / RFU HLA-DPB1 (11760878_x_at) / Fold change /veh HLA-DPB1 (11760878_x_at) / RFU SPINT1 (11716480_a_at) / Fold change /veh SPINT1 (11716480_a_at) / RFU GAP43 (11754022_s_at) / Fold change /veh GAP43 (11754022_s_at) / RFU A4GNT (11735810_at) / Fold change /veh A4GNT (11735810_at) / RFU PRB3 (11715151_x_at) / Fold change /veh PRB3 (11715151_x_at) / RFU TUBB4B (11761932_at) / Fold change /veh TUBB4B (11761932_at) / RFU CAPN14 (11732068_a_at) / Fold change /veh CAPN14 (11732068_a_at) / RFU TMCC2 (11721928_a_at) / Fold change /veh TMCC2 (11721928_a_at) / RFU IRGQ (11745062_a_at) / Fold change /veh IRGQ (11745062_a_at) / RFU FAM174B (11720279_a_at) / Fold change /veh FAM174B (11720279_a_at) / RFU TMPRSS4 (11748680_a_at) / Fold change /veh TMPRSS4 (11748680_a_at) / RFU FAM212B (11763350_a_at) / Fold change /veh FAM212B (11763350_a_at) / RFU PLEKHG5 (11743358_a_at) / Fold change /veh PLEKHG5 (11743358_a_at) / RFU ZSCAN30 (11745921_a_at) / Fold change /veh ZSCAN30 (11745921_a_at) / RFU CMKLR1 (11741424_a_at) / Fold change /veh CMKLR1 (11741424_a_at) / RFU LOC101060620 /// MAPK8IP1 (11723275_at) / Fold change /veh LOC101060620 /// MAPK8IP1 (11723275_at) / RFU SPTSSB (11747773_x_at) / Fold change /veh SPTSSB (11747773_x_at) / RFU PRSS12 (11739890_at) / Fold change /veh PRSS12 (11739890_at) / RFU BIN1 (11741810_x_at) / Fold change /veh BIN1 (11741810_x_at) / RFU WNT11 (11732464_a_at) / Fold change /veh WNT11 (11732464_a_at) / RFU C10orf10 (11716521_a_at) / Fold change /veh C10orf10 (11716521_a_at) / RFU C5orf56 (11738089_at) / Fold change /veh C5orf56 (11738089_at) / RFU CYB561 (11721691_x_at) / Fold change /veh CYB561 (11721691_x_at) / RFU ANKRD19P (11752326_a_at) / Fold change /veh ANKRD19P (11752326_a_at) / RFU OR2T12 /// OR2T33 /// OR2T8 (11738714_s_at) / Fold change /veh OR2T12 /// OR2T33 /// OR2T8 (11738714_s_at) / RFU VCAN (11748164_a_at) / Fold change /veh VCAN (11748164_a_at) / RFU JSRP1 (11732532_at) / Fold change /veh JSRP1 (11732532_at) / RFU KRTAP10-11 (11738290_x_at) / Fold change /veh KRTAP10-11 (11738290_x_at) / RFU MYO3A (11730013_a_at) / Fold change /veh MYO3A (11730013_a_at) / RFU EBF3 (11725865_a_at) / Fold change /veh EBF3 (11725865_a_at) / RFU CAMK2N1 (11719241_x_at) / Fold change /veh CAMK2N1 (11719241_x_at) / RFU C5orf56 (11738088_a_at) / Fold change /veh C5orf56 (11738088_a_at) / RFU OLFML3 (11715873_a_at) / Fold change /veh OLFML3 (11715873_a_at) / RFU LOC100653217 /// NTM (11731650_a_at) / Fold change /veh LOC100653217 /// NTM (11731650_a_at) / RFU MAPK11 (11762145_a_at) / Fold change /veh MAPK11 (11762145_a_at) / RFU FIZ1 (11724087_x_at) / Fold change /veh FIZ1 (11724087_x_at) / RFU OASL (11726364_x_at) / Fold change /veh OASL (11726364_x_at) / RFU SOX15 (11748057_x_at) / Fold change /veh SOX15 (11748057_x_at) / RFU CD79A (11719716_a_at) / Fold change /veh CD79A (11719716_a_at) / RFU HIST1H1D (11736915_at) / Fold change /veh HIST1H1D (11736915_at) / RFU CASKIN2 (11723855_a_at) / Fold change /veh CASKIN2 (11723855_a_at) / RFU LOC730098 (11760151_x_at) / Fold change /veh LOC730098 (11760151_x_at) / RFU OR4N2 (11742367_at) / Fold change /veh OR4N2 (11742367_at) / RFU PRRT2 (11749266_a_at) / Fold change /veh PRRT2 (11749266_a_at) / RFU SNX32 (11753110_a_at) / Fold change /veh SNX32 (11753110_a_at) / RFU CDHR5 (11726645_a_at) / Fold change /veh CDHR5 (11726645_a_at) / RFU RCAN1 (11760418_a_at) / Fold change /veh RCAN1 (11760418_a_at) / RFU FAM167A (11723789_a_at) / Fold change /veh FAM167A (11723789_a_at) / RFU FAM26E (11764081_at) / Fold change /veh FAM26E (11764081_at) / RFU ISYNA1 (11749810_s_at) / Fold change /veh ISYNA1 (11749810_s_at) / RFU ACY1 (11761880_at) / Fold change /veh ACY1 (11761880_at) / RFU 11764098_at / Fold change /veh 11764098_at / RFU SAMD14 (11745864_x_at) / Fold change /veh SAMD14 (11745864_x_at) / RFU NPB (11741838_a_at) / Fold change /veh NPB (11741838_a_at) / RFU TMPRSS6 (11731388_a_at) / Fold change /veh TMPRSS6 (11731388_a_at) / RFU KRTAP10-2 (11738614_at) / Fold change /veh KRTAP10-2 (11738614_at) / RFU ARHGAP8 /// PRR5-ARHGAP8 (11727945_x_at) / Fold change /veh ARHGAP8 /// PRR5-ARHGAP8 (11727945_x_at) / RFU KRTAP5-7 /// NADSYN1 (11734609_at) / Fold change /veh KRTAP5-7 /// NADSYN1 (11734609_at) / RFU RASL12 (11751679_a_at) / Fold change /veh RASL12 (11751679_a_at) / RFU CDKN2B (11736163_a_at) / Fold change /veh CDKN2B (11736163_a_at) / RFU PRF1 (11729649_at) / Fold change /veh PRF1 (11729649_at) / RFU, ZNF638 /// ZNF638-IT1 / Fold change vs veh, ZNF638 /// ZNF638-IT1 / RFU, PANK3 / Fold change vs veh, PANK3 / RFU, SH3YL1 / Fold change vs veh, SH3YL1 / RFU, ZEB2 / Fold change vs veh, ZEB2 / RFU, NRIP1 / Fold change vs veh, NRIP1 / RFU, PTTG1IP / Fold change vs veh, PTTG1IP / RFU, CAPN2 / Fold change vs veh, CAPN2 / RFU, MED14 / Fold change vs veh, MED14 / RFU, SNORA58 / Fold change vs veh, SNORA58 / RFU, C1orf63 / Fold change vs veh, C1orf63 / RFU, LRRFIP1 / Fold change vs veh, LRRFIP1 / RFU, NDUFAF7 / Fold change vs veh, NDUFAF7 / RFU, SLC12A2 / Fold change vs veh, SLC12A2 / RFU, IBTK / Fold change vs veh, IBTK / RFU, ESF1 / Fold change vs veh, ESF1 / Fold change vs veh, TMEM50B / RFU, TAOK1 / Fold change vs veh, TAOK1 / RFU, ACBD3 / Fold change vs veh, ACBD3 / RFU, TMA16 / Fold change vs veh, TMA16 / RFU, RWDD3 / Fold change vs veh, RWDD3 / RFU, BCAT1 / Fold change vs veh, BCAT1 / RFU, EDEM3 / Fold change vs veh, EDEM3 / RFU, TMEM33 / Fold change vs veh, TMEM33 / RFU, WDR75 / Fold change vs veh, WDR75 / RFU, AHCTF1 / Fold change vs veh, AHCTF1 / RFU, TFRC / Fold change vs veh, TFRC / RFU, ZDHHC17 / Fold change vs veh, ZDHHC17 / RFU, NOM1 / Fold change vs veh, NOM1 / RFU, ARL8B / Fold change vs veh, ARL8B / RFU, ZBTB11 / Fold change vs veh, ZBTB11 / RFU, TAMM41 / Fold change vs veh, TAMM41 / RFU, KIAA1704 /// LOC100996395 / Fold change vs veh, KIAA1704 /// LOC100996395 / RFU, ING1 / Fold change vs veh, ING1 / RFU, TRMT61B / Fold change vs veh, TRMT61B / RFU, FUBP3 / Fold change vs veh, FUBP3 / RFU, TP53 / Fold change vs veh, TP53 / RFU, TNKS2 / Fold change vs veh, TNKS2 / RFU, ZFP14 / Fold change vs veh, ZFP14 / RFU, ACTR2 / Fold change vs veh, ACTR2 / RFU, PPP3R1 / Fold change vs veh, PPP3R1 / RFU, PIK3R1 / Fold change vs veh, PIK3R1 / RFU, HNRNPA1 / Fold change vs veh, HNRNPA1 / RFU, RNF170 / Fold change vs veh, RNF170 / RFU, ZNF28 / Fold change vs veh, ZNF28 / RFU, RNGTT / Fold change vs veh, RNGTT / RFU, OGT / Fold change vs veh, OGT / RFU, BRD1 / Fold change vs veh, BRD1 / RFU, MARS / Fold change vs veh, MARS / RFU, ZNF655 / Fold change vs veh, ZNF655 / RFU, FAHD1 / Fold change vs veh, FAHD1 / RFU, BDP1 / Fold change vs veh, BDP1 / RFU, LRRCC1 / Fold change vs veh, LRRCC1 / RFU, ARID1A / Fold change vs veh, ARID1A / RFU, ZNF146 / Fold change vs veh, ZNF146 / RFU, ZNF330 / Fold change vs veh, ZNF330 / RFU, GPN3 / Fold change vs veh, GPN3 / RFU, C9orf123 / Fold change vs veh, C9orf123 / RFU, N4BP2L2 / Fold change vs veh, N4BP2L2 / RFU, ARFIP1 / Fold change vs veh, ARFIP1 / RFU, FAM179B / Fold change vs veh, FAM179B / RFU, BCL10 / Fold change vs veh, BCL10 / RFU, UHRF1BP1L / Fold change vs veh, UHRF1BP1L / RFU, BET1 / Fold change vs veh, BET1 / RFU, CNOT2 / Fold change vs veh, CNOT2 / RFU, ZNF268 / Fold change vs veh, ZNF268 / Fold change vs veh, ZNF507 / RFU, DGCR2 / Fold change vs veh, DGCR2 / RFU, WDSUB1 / Fold change vs veh, WDSUB1 / Fold change vs veh, HSP90B1 /// MIR3652 / RFU, ADSS / Fold change vs veh, ADSS / RFU, GK / Fold change vs veh, GK / RFU, ZNF148 / Fold change vs veh, ZNF148 / RFU, TAF9 / Fold change vs veh, TAF9 / RFU, SLC1A5 / Fold change vs veh, SLC1A5 / RFU, SLMO2 / Fold change vs veh, SLMO2 / RFU, ABCC4 / Fold change vs veh, ABCC4 / RFU, LOC101060439 /// RAP1B / Fold change vs veh, LOC101060439 /// RAP1B / RFU, RFX7 / Fold change vs veh, RFX7 / RFU, GTPBP10 / Fold change vs veh, GTPBP10 / RFU, CNEP1R1 / Fold change vs veh, CNEP1R1 / RFU, BIVM-ERCC5 /// ERCC5 / Fold change vs veh, BIVM-ERCC5 /// ERCC5 / RFU, ILF3 / Fold change vs veh, ILF3 / RFU 11762660_at / Fold change /veh 11762660_at / RFU VCAN (11757783_s_at) / Fold change /veh VCAN (11757783_s_at) / RFU DDX43 (11728927_at) / Fold change /veh DDX43 (11728927_at) / RFU KRT8 (11758188_x_at) / Fold change /veh KRT8 (11758188_x_at) / RFU NKD1 (11759106_at) / Fold change /veh NKD1 (11759106_at) / RFU SRD5A1 (11742802_a_at) / Fold change /veh SRD5A1 (11742802_a_at) / RFU TPSAB1 /// TPSB2 (11721975_s_at) / Fold change /veh TPSAB1 /// TPSB2 (11721975_s_at) / RFU GSTM3 (11746129_a_at) / Fold change /veh GSTM3 (11746129_a_at) / RFU IL23R (11737362_x_at) / Fold change /veh IL23R (11737362_x_at) / RFU TMEM51 (11727254_a_at) / Fold change /veh TMEM51 (11727254_a_at) / RFU PIWIL2 (11732686_x_at) / Fold change /veh PIWIL2 (11732686_x_at) / RFU ORM1 (11744905_x_at) / Fold change /veh ORM1 (11744905_x_at) / RFU CCDC152 (11743942_at) / Fold change /veh CCDC152 (11743942_at) / RFU ECM1 (11717891_a_at) / Fold change /veh ECM1 (11717891_a_at) / RFU IL23R (11748794_a_at) / Fold change /veh IL23R (11748794_a_at) / RFU TNFAIP8L3 (11732012_x_at) / Fold change /veh TNFAIP8L3 (11732012_x_at) / RFU MBOAT4 (11741988_at) / Fold change /veh MBOAT4 (11741988_at) / RFU 11764193_at / Fold change /veh 11764193_at / RFU TMEM53 (11763286_at) / Fold change /veh TMEM53 (11763286_at) / RFU MAGEB2 (11727129_at) / Fold change /veh MAGEB2 (11727129_at) / RFU TMEM200A (11744735_a_at) / Fold change /veh TMEM200A (11744735_a_at) / RFU CCDC152 (11751479_a_at) / Fold change /veh CCDC152 (11751479_a_at) / RFU FAM211A (11726209_a_at) / Fold change /veh FAM211A (11726209_a_at) / RFU RGS16 (11746705_a_at) / Fold change /veh RGS16 (11746705_a_at) / RFU VCAN (11755009_s_at) / Fold change /veh VCAN (11755009_s_at) / RFU RHOB (11743442_s_at) / Fold change /veh RHOB (11743442_s_at) / RFU RGS16 (11720943_a_at) / Fold change /veh RGS16 (11720943_a_at) / RFU RGS16 (11720944_at) / Fold change /veh RGS16 (11720944_at) / RFU, VPS4B / Fold change vs veh, VPS4B / RFU, CREB1 / Fold change vs veh, CREB1 / RFU, DNAJC13 / Fold change vs veh, DNAJC13 / RFU, GNAQ / Fold change vs veh, GNAQ / RFU, CDK5R1 / Fold change vs veh, CDK5R1 / RFU, ZRANB3 / Fold change vs veh, ZRANB3 / RFU, CUL4A / Fold change vs veh, CUL4A / RFU, CCNY / Fold change vs veh, CCNY / RFU, UFL1 / Fold change vs veh, UFL1 / RFU, COG3 / Fold change vs veh, COG3 / RFU, DIAPH2 / Fold change vs veh, DIAPH2 / RFU, SKA2 / Fold change vs veh, SKA2 / RFU, AFF3 / Fold change vs veh, AFF3 / RFU, LMF1 / Fold change vs veh, LMF1 / RFU, IPO11 / Fold change vs veh, IPO11 / RFU, DFFB / Fold change vs veh, DFFB / RFU, FOXP1 / Fold change vs veh, FOXP1 / RFU, CARD8 / Fold change vs veh, CARD8 / RFU, STRN3 / Fold change vs veh, STRN3 / RFU, ADK / Fold change vs veh, ADK / RFU, RASSF2 / Fold change vs veh, RASSF2 / RFU, WIPF1 / Fold change vs veh, WIPF1 / RFU, LARP1B / Fold change vs veh, LARP1B / RFU, RASA1 / Fold change vs veh, RASA1 / RFU, RB1 / Fold change vs veh, RB1 / RFU, PPFIA1 / Fold change vs veh, PPFIA1 / RFU, MAT2A / Fold change vs veh, MAT2A / RFU, CCT5 / Fold change vs veh, CCT5 / RFU, WDR92 / Fold change vs veh, WDR92 / RFU, CUX1 / Fold change vs veh, CUX1 / RFU, TTC7A / Fold change vs veh, TTC7A / RFU, TMEM135 / Fold change vs veh, TMEM135 / RFU, DEPTOR / Fold change vs veh, DEPTOR / RFU, CPM / Fold change vs veh, CPM / RFU, DNAJB6 / Fold change vs veh, DNAJB6 / RFU, CACNA2D3 / Fold change vs veh, CACNA2D3 / RFU, DTX4 / Fold change vs veh, DTX4 / RFU, TFCP2 / Fold change vs veh, TFCP2 / RFU, GMCL1 /// GMCL1P1 / Fold change vs veh, GMCL1 /// GMCL1P1 / RFU, AEBP2 / Fold change vs veh, AEBP2 / RFU, SNHG1 /// SNORD22 /// SNORD25 /// SNORD26 /// SNORD27 /// SNORD28 /// SNORD29 /// SNORD31 / Fold change vs veh, SNHG1 /// SNORD22 /// SNORD25 /// SNORD26 /// SNORD27 /// SNORD28 /// SNORD29 /// SNORD31 / Fold change (Aza/veh), C12orf56 (ProbeSet 11735607_a_at) / Fold change (ACY-1035/veh), C12orf56 (ProbeSet 11735607_a_at) / Fold change (Aza/veh), FGFR1OP (ProbeSet 11751329_s_at) / Fold change (ACY-1035/veh), FGFR1OP (ProbeSet 11751329_s_at) / Fold change (Aza/veh), VPS36 (ProbeSet 11739960_a_at) / Fold change (ACY-1035/veh), VPS36 (ProbeSet 11739960_a_at) / RFU SYPL1 (11715823_x_at) / Fold change /veh SYPL1 (11715823_x_at) / RFU IGFBP7 (11715501_s_at) / Fold change /veh IGFBP7 (11715501_s_at) / RFU REEP3 (11722064_at) / Fold change /veh REEP3 (11722064_at) / RFU IGLL1 (11728026_x_at) / Fold change /veh IGLL1 (11728026_x_at): dose or concentration left out as unconfirmed
# Conditions: ProbeSet 11732306_x_at; LIST D
smiles,measurement,value
Nc1ncn([C@@H]2O[C@H](CO)[C@@H](O)[C@H]2O)c(=O)n1 [azacitidine],"RFU, CREB1",273.21 RFU
